How the values were obtained:
HT-29 = experiment: Cytotoxicity against human HT-29 cells assessed as reduction in cell viability by SRB assay; type: functional, cell-based
A549 = experiment: Cytotoxicity against human A549 cells assessed as reduction in cell viability by SRB assay; type: functional, cell-based
KB = experiment: Cytotoxicity against human KB cells assessed as reduction in cell viability by SRB assay; type: functional, cell-based
[1] = Cytotoxicity against rat ASK cells assessed as reduction in cell viability by SRB assay; type: functional, cell-based
[2] = Cytotoxicity against human P388 cells assessed as reduction in cell viability by SRB assay; type: functional, cell-based
[3] = Cytotoxicity against human K213 cells assessed as reduction in cell viability by SRB assay; type: functional, cell-based
MCF7 [4] = experiment: Cytotoxicity against human MCF7 cells assessed as reduction in cell viability by SRB assay; type: functional, cell-based
[5] = Cytotoxicity against human K055 cells assessed as reduction in cell viability by SRB assay; type: functional, cell-based
MCF7 [6] = experiment: Potency index, ratio of andrographolide IC50 to test compound IC50 for cytotoxicity against human MCF7 cells; type: functional

| SMILES | IC50 (HT-29) | IC50 (A549) | IC50 (KB) | IC50 [1] | IC50 [2] | IC50 [3] | IC50 (MCF7 [4]) | IC50 [5] | Ratio IC50 (MCF7 [6]) |
| --- | --- | --- | --- | --- | --- | --- | --- | --- | --- |
| C=C1[C@@H](OC(C)=O)C[C@@H]2[C@](C)(COC=O)[C@H](OC(C)=O)CC[C@@]2(C)[C@@H]1C[C@@H](Nc1ccccc1)C1=CCOC1=O | 28.8 µM | 25.8 µM | 32.1 µM | 41 µM | 7.84 µM | 39.8 µM | 26.2 µM | 33.2 µM | – |
| C=C1[C@@H](OC(C)=O)C[C@@H]2[C@](C)(CO[Si](C)(C)C(C)(C)C)[C@H](OC(C)=O)CC[C@@]2(C)[C@@H]1C[C@@H](Nc1ccc(OC)c(OC)c1)C1=CCOC1=O | 5.33 µM | 4.87 µM | 5.8 µM | 4.95 µM | 4.53 µM | 5.15 µM | 4.31 µM | 5.73 µM | – |
| C=C1[C@@H](OC(C)=O)C[C@@H]2[C@](C)(CO[Si](C)(C)C(C)(C)C)[C@H](OC(C)=O)CC[C@@]2(C)[C@@H]1C[C@@H](Nc1ccc(C(=O)O)cc1)C1=CCOC1=O | 4.63 µM | 4.21 µM | 5.54 µM | 4.31 µM | 4.18 µM | 6.75 µM | 3.99 µM | 4.88 µM | 7 |
| C=C1CC[C@@H]2[C@](C)(CO[Si](C)(C)C(C)(C)C)[C@H](OC(C)=O)CC[C@@]2(C)[C@@H]1C/C=C1/C(=O)OC[C@H]1OC(C)=O | 4.69 µM | 3.99 µM | 5.05 µM | 2.41 µM | 0.3 µM | 38.7 µM | 4.84 µM | 44.3 µM | – |
| C=C1[C@@H](OC(C)=O)C[C@@H]2[C@](C)(CO[Si](C)(C)C(C)(C)C)[C@H](OC(C)=O)CC[C@@]2(C)[C@@H]1C[C@@H](Nc1ccccc1F)C1=CCOC1=O | 3.71 µM | 3.19 µM | 4.74 µM | 3.69 µM | 3.14 µM | 5.45 µM | 2.93 µM | 5.19 µM | 7 |
| C=C1[C@@H](OC(C)=O)C[C@@H]2[C@](C)(CO[Si](C)(C)C(C)(C)C)[C@H](OC(C)=O)CC[C@@]2(C)[C@@H]1C[C@@H](Nc1ccccc1C(=O)O)C1=CCOC1=O | 5.34 µM | 4.89 µM | 6.05 µM | 4.31 µM | 4.31 µM | 5.91 µM | 4.46 µM | 5.64 µM | 7 |
| C=C1[C@@H](OC(C)=O)C[C@@H]2[C@](C)(COC=O)[C@H](OC(C)=O)CC[C@@]2(C)[C@@H]1C[C@@H](Nc1ccc(Br)cc1)C1=CCOC1=O | 13.2 µM | 15.8 µM | 24 µM | 49.9 µM | 4.95 µM | 25.4 µM | 11.4 µM | 24.4 µM | – |
| C=C1[C@@H](OC(C)=O)C[C@@H]2[C@](C)(COC=O)[C@H](OC(C)=O)CC[C@@]2(C)[C@@H]1C/C=C1/C(=O)OC[C@H]1OC(C)=O | 8.29 µM | 19 µM | 21.6 µM | 19.2 µM | 4.55 µM | 20.8 µM | 12.9 µM | 15.3 µM | – |
| C=C1CC[C@@H]2[C@](C)(CO)[C@H](O)CC[C@@]2(C)[C@@H]1C/C=C1/C(=O)OC[C@H]1O [ANDROGRAPHOLIDE] | 10.8 µM | 12.2 µM | 41.5 µM | 45.4 µM | 6.91 µM | 33.9 µM | 29.1 µM | 30.2 µM | – |
| C=C1[C@@H](OC(C)=O)C[C@@H]2[C@](C)(COC=O)[C@H](OC(C)=O)CC[C@@]2(C)[C@@H]1C[C@@H](Nc1ccc(OC)cc1)C1=CCOC1=O | 25.4 µM | 28.9 µM | 32.7 µM | > 50 µM | 7.9 µM | 40.9 µM | 24.2 µM | 33.2 µM | – |
| C=C1[C@@H](OC(C)=O)C[C@@H]2[C@](C)(COC=O)[C@H](OC(C)=O)CC[C@@]2(C)[C@@H]1C[C@@H](Nc1ccc(C(=O)O)cc1)C1=CCOC1=O | 37.2 µM | > 50 µM | > 50 µM | > 50 µM | 22.2 µM | > 50 µM | 41.6 µM | 48.3 µM | – |
| C=C1[C@@H](OC(C)=O)C[C@@H]2[C@](C)(COC=O)[C@H](OC(C)=O)CC[C@@]2(C)[C@@H]1C[C@@H](Nc1ccccc1C(=O)O)C1=CCOC1=O | 28.7 µM | 45.9 µM | 42.5 µM | > 50 µM | 9.11 µM | 42.6 µM | 30.8 µM | 40.4 µM | – |
| C=C1[C@@H](OC(C)=O)C[C@@H]2[C@](C)(CO[Si](C)(C)C(C)(C)C)[C@H](OC(C)=O)CC[C@@]2(C)[C@@H]1C[C@@H](Nc1cccc(OC)c1)C1=CCOC1=O | > 50 µM | 17.2 µM | 45.2 µM | 39.7 µM | 27.8 µM | 40.1 µM | 28.1 µM | 44 µM | – |
| C=C1[C@@H](OC(C)=O)C[C@@H]2[C@](C)(COC=O)[C@H](OC(C)=O)CC[C@@]2(C)[C@@H]1C[C@@H](Nc1ccc(OC)c(OC)c1)C1=CCOC1=O | 42.8 µM | > 50 µM | > 50 µM | > 50 µM | 25.8 µM | > 50 µM | > 50 µM | 48.2 µM | – |
| C=C1[C@@H](OC(C)=O)C[C@@H]2[C@](C)(COC=O)[C@H](OC(C)=O)CC[C@@]2(C)[C@@H]1C[C@@H](Nc1ccccc1F)C1=CCOC1=O | 9.76 µM | 23.6 µM | 29 µM | 31.6 µM | 5.97 µM | 31 µM | 16.4 µM | 30.3 µM | – |
| C=C1[C@@H](OC(C)=O)C[C@@H]2[C@](C)(COC=O)[C@H](OC(C)=O)CC[C@@]2(C)[C@@H]1C[C@H](C1=CCOC1=O)N1CCOCC1 | 35.1 µM | > 50 µM | > 50 µM | 34.4 µM | 29.2 µM | 31.7 µM | 43.6 µM | 33.7 µM | – |
| C=C1[C@@H](C/C=C2/C(=O)OC[C@H]2OC(C)=O)[C@]2(C)CC[C@@H](OC(C)=O)[C@@](C)(CO[Si](C)(C)C(C)(C)C)[C@H]2C[C@@H]1O | 9.31 µM | 6.85 µM | 9.79 µM | 5.97 µM | 0.9 µM | 24 µM | 6.96 µM | 19.9 µM | – |
| C=C1[C@@H](OC(C)=O)C[C@@H]2[C@](C)(COC=O)[C@H](OC(C)=O)CC[C@@]2(C)[C@@H]1C[C@@H](Nc1cccc2ccccc12)C1=CCOC1=O | 8.67 µM | 35.6 µM | 32.3 µM | > 50 µM | 6.49 µM | 31.3 µM | 9.75 µM | 28.8 µM | – |
| C=C1[C@@H](OC(C)=O)C[C@@H]2[C@](C)(COC=O)[C@H](OC(C)=O)CC[C@@]2(C)[C@@H]1C[C@@H](Nc1ccc(O)cc1)C1=CCOC1=O | 13.4 µM | 29.1 µM | 28.9 µM | 24.2 µM | 4.4 µM | 27.1 µM | 18.1 µM | 28.6 µM | – |
| C=C1[C@@H](OC(C)=O)C[C@@H]2[C@](C)(CO[Si](C)(C)C(C)(C)C)[C@H](OC(C)=O)CC[C@@]2(C)[C@@H]1C[C@H](C1=CCOC1=O)N1CCOCC1 | 37.6 µM | 24.8 µM | 35.7 µM | 26.3 µM | 20.4 µM | – | 31.6 µM | 28.3 µM | – |
| C=C1[C@@H](OC(C)=O)C[C@@H]2[C@](C)(CO[Si](C)(C)C(C)(C)C)[C@H](OC(C)=O)CC[C@@]2(C)[C@@H]1C[C@@H](Nc1ccc(OC)cc1)C1=CCOC1=O | 5.37 µM | 4.81 µM | 5.63 µM | 4.56 µM | 4.03 µM | 5.2 µM | 4.28 µM | 5.6 µM | – |
| C=C1[C@@H](OC(C)=O)C[C@@H]2[C@](C)(CO[Si](C)(C)C(C)(C)C)[C@H](OC(C)=O)CC[C@@]2(C)[C@@H]1C[C@@H](Nc1ccc(O)cc1)C1=CCOC1=O | 6.14 µM | 5.09 µM | 8.35 µM | 5 µM | 5.03 µM | 9.25 µM | 5.22 µM | 5.95 µM | – |
| C=C1[C@@H](OC(C)=O)C[C@@H]2[C@](C)(COC=O)[C@H](OC(C)=O)CC[C@@]2(C)[C@@H]1C[C@@H](Nc1cccc(F)c1)C1=CCOC1=O | 9.41 µM | 23.2 µM | 28.6 µM | 35.8 µM | 5.53 µM | 27.2 µM | 14.1 µM | 29.2 µM | – |
| C=C1[C@@H](OC(C)=O)C[C@@H]2[C@](C)(CO[Si](C)(C)C(C)(C)C)[C@H](OC(C)=O)CC[C@@]2(C)[C@@H]1C[C@@H](Nc1cccc2ccccc12)C1=CCOC1=O | 15 µM | 4.97 µM | 8.93 µM | 6.33 µM | 5.74 µM | 15.3 µM | 5.77 µM | 6.72 µM | – |
| Cc1c2ccncc2c(C)c2c1[nH]c1ccccc12 [ELLIPTECINE] | 2.59 µM | 2.13 µM | 2.2 µM | 2.42 µM | 1.87 µM | 2.11 µM | 2.18 µM | 2.04 µM | – |
| C=C1[C@@H](OC(C)=O)C[C@@H]2[C@](C)(COC=O)[C@H](OC(C)=O)CC[C@@]2(C)[C@@H]1C[C@@H](Nc1ccc(F)cc1)C1=CCOC1=O | 20.5 µM | 21.2 µM | 22.9 µM | 38.6 µM | 6.31 µM | 30.2 µM | 12.4 µM | 25.8 µM | – |

From ChEMBL document CHEMBL4673364, “Synthesis and cytotoxic activity of new 7-acetoxy-12-amino-14-deoxy andrographolide analogues” (Bioorg Med Chem Lett, 2021)
